Results from the Kinase Knowledgebase extract (Sharma et al. 2016).

Molecular target: MAPK14 (murine)
Assay: Inhibition of MAPK14 Kinase Activity

IC50 [nM]	Compound
51	COc1ccc(CCC2(O)CCN(C)CC2)cc1C(=O)c1ccc(Nc2ccc(F)cc2F)cc1
0.7	Cc1nc2cc(Cl)c(C(=O)c3ccc(Nc4ccc(F)cc4F)cc3)cc2[nH]1
101	O=C(c1ccc(Nc2ccc(F)cc2F)nc1)c1ccccc1Cl
11	O=C(c1ccc(Nc2ccc(F)cc2F)cc1)c1ccccc1Cl
38	COc1ccccc1C(=O)c1ccc(Nc2ccc(F)cc2F)cc1
8	Cc1nc2cc(Cl)c(C(=O)c3ccc(Nc4ccc(F)cc4F)nc3)cc2[nH]1
5	COc1cc2nc(C)[nH]c2cc1C(=O)c1ccc(Nc2ccc(F)cc2F)cc1
300	O=C(c1ccc(Nc2ccc(F)cc2F)nc1)c1cc(Br)ccc1Cl
14	COc1ccc(C#CC(C)(C)N)cc1C(=O)c1ccc(Nc2ccc(F)cc2F)cc1

More lines, now with the values behind:

Compound	IC50 [nM]
COc1ccc(/C=C/C2(O)CCN(C)CC2)cc1C(=O)c1ccc(Nc2ccc(F)cc2F)cc1	1
COc1ccc(C#CC(C)(C)N)cc1C(=O)c1ccc(Nc2ccc(F)cc2F)nc1	8
COc1ccc(CCC(C)(C)N)cc1C(=O)c1ccc(Nc2ccc(F)cc2F)cc1	113
CC(C)(N)CCc1ccc(Cl)c(C(=O)c2ccc(Nc3ccc(F)cc3F)nc2)c1	160
CC(C)(N)C#Cc1ccc(Cl)c(C(=O)c2ccc(Nc3ccc(F)cc3F)nc2)c1	19
COc1ccc(CCC(C)(C)O)cc1C(=O)c1ccc(Nc2ccc(F)cc2F)nc1	479
COc1ccc(C#CC(C)(C)O)cc1C(=O)c1ccc(Nc2ccc(F)cc2F)nc1	54
CC(C)(N)C#Cc1ccc(Cl)c(C(=O)c2ccc(Nc3ccc(F)cc3F)cc2)c1	6
COc1cc2nc(C)[nH]c2cc1C(=O)c1ccc(Nc2ccc(F)cc2F)nc1	21
